Measured values taken from patent US8436012B2, “Imidazopyridin-2-one derivatives” (Daiichi Sankyo Company, Limited, priority 2008, dated 2013).

Legend:
WM-266-4 cells = test: Cell Proliferation Inhibitory Test; assay type: cell-based; settings: Homo sapiens, 72 h, cultured three days with test compound, MTT, read-out: 50% cell proliferation inhibitory activity (GI50 value)
Summary of the method: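 Cells cultured overnight, then exposed to serially diluted compound for three days; cell amount read by MTT. GI50 solved from 100×[(T−T0)/(C−T0)]=50, with T0 the value at time of compound addition and C the untreated three-day control.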

human mTOR = target: T1, human mTOR (Homo sapiens, UniProt P42345); test: mTOR Kinase Activity Inhibition Test; assay type: biochemical; settings: His-tagged mTOR (1362C), biotinylated peptide substrate, ATP, 3 hours at room temperature, fluorescence resonance energy transfer 665 nm/620 nm; read-out: IC50 value of mTOR enzyme inhibitory activity
T1 construct: the portion corresponding to 1362-2549aa at the C terminus of human mTOR; made in house
T1 sequence (P42345 1362-2549): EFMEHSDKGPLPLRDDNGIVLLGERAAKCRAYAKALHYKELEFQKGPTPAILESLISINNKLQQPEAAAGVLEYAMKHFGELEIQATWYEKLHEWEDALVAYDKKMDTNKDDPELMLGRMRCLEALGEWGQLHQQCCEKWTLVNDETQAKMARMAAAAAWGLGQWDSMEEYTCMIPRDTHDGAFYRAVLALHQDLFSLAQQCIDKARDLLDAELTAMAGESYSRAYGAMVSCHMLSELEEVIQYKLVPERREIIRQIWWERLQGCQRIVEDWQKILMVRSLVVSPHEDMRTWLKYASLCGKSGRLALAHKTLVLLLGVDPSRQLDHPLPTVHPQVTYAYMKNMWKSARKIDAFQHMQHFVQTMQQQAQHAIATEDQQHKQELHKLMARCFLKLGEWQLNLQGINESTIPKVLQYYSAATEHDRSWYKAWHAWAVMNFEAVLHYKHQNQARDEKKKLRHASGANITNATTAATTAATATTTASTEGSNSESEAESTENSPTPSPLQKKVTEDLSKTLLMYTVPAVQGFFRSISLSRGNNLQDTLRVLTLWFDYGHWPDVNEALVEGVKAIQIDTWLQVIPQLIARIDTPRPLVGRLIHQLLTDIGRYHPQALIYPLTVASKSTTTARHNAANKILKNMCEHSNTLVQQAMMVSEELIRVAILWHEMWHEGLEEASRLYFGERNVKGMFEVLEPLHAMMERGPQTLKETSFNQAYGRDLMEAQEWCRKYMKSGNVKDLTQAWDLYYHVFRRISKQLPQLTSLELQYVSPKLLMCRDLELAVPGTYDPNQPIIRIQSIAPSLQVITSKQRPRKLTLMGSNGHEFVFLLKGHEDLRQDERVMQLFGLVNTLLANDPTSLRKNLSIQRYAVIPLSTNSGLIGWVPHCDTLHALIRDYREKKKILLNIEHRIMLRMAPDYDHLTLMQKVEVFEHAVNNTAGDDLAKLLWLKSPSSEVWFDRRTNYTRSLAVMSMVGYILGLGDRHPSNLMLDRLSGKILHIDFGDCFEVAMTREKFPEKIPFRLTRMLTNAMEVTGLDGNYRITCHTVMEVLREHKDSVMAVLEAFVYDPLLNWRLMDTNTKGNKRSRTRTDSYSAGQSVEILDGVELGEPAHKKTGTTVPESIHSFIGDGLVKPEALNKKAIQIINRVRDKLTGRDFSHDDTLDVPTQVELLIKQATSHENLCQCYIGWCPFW
Summary of the method: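 Purified His-tagged human mTOR (1362–2549aa, from HEK293) was used with biotinylated peptide (8 μg/mL in enzyme solution) in HEPES pH 7.5 with 20 mM MnCl2. Compounds were diluted in 20 μM ATP solution, and the reaction ran 3 h at RT. Phospho-S6K(Thr389) HTRF was read as the 665/620 nm ratio, and IC50 came from % inhibition versus controls.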

| IC50 (human mTOR) [nM] | Structure (SMILES) | GI50 (WM-266-4 cells) [nM] |
| --- | --- | --- |
| < 50 | O=c1[nH]c2ncc(-c3cc4cc[nH]c4cc3F)cc2n1CC1CCOCC1 [Example 28, 6-(6-Fluoro-1H-indol-5-yl)-1-(tetrahydro-2H-pyran-4-ylmethyl)-1,3-dihydro-2H-imidazo[4,5-b]pyridin-2-one] | < 3000 |
| 100 to 5000 | CN(C)Cc1c[nH]c2ncc(-c3cnc4[nH]c(=O)n(CC5CCOCC5)c4c3)cc12 [Example 89, 6-{3-[(Dimethylamino)methyl]-1H-pyrrolo[2,3-b]pyridin-5-yl}-1-(tetrahydro-2H-pyran-4-ylmethyl)-1,3-dihydro-2H-imidazo[4,5-b]pyridin-2-one] | 3000 to 25000 |
| < 50 | CS(=O)(=O)N1CCC(Cn2c(=O)[nH]c3ncc(-c4ccc5[nH]ccc5c4)cc32)CC1 [Example 9, 6-(1H-Indol-5-yl)-1-{[1-(methanesulfonyl)piperidin-4-yl]methyl}-1,3-dihydro-2H-imidazo[4,5-b]pyridin-2-one] | < 3000 |
